Drawing on PubChem BioAssay AID330 (DTP/NCI, 2004), this text covers T/C for 23 compounds.

SMILES strings stand for the structures. “And” between values parts separate entries of the source, which are not always exact repeats. Equal values may be shown once. Toxic doses and inconclusive results are not listed.

In the test the test system is P388 leukemia ip, CD2F1 mice, survival T/C. Description: NCI In Vivo Anticancer Drug Screen. Data for tumor model P388 Leukemia (intraperitoneal) in CD2F1 (CDF1) mice. Conditions: endpoint: median survival time, higher = longer survival. In a few lines: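 Mice carrying the transplanted tumor received test compound or vehicle. Survival was recorded in each group, and the value is the treated-group measurement divided by that of the vehicle-treated control group.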

Where [1] appears, read: dose: 60.0 mg/kg/injection, schedule: Q01DX005 (ip), vehicle: saline with Tween-80.
Where [2] appears, read: dose: 120.0 mg/kg/injection, schedule: Q01DX005 (ip), vehicle: saline with Tween-80.
The mark [3] stands for this setting: dose: 240.0 mg/kg/injection, schedule: Q01DX005 (ip), vehicle: saline with Tween-80.
[4] abbreviates: dose: 100.0 mg/kg/injection, schedule: Q01DX001 (ip), vehicle: saline.
The mark [5] stands for this setting: dose: 200.0 mg/kg/injection, schedule: Q01DX001 (ip), vehicle: saline.
[6] abbreviates: dose: 400.0 mg/kg/injection, schedule: Q01DX001 (ip), vehicle: saline.
The mark [7] stands for this setting: dose: 50.0 mg/kg/injection, schedule: Q01DX005 (ip), vehicle: Klucel (hydroxypropylcellulose) (HPC).
The mark [8] stands for this setting: dose: 100.0 mg/kg/injection, schedule: Q01DX005 (ip), vehicle: Klucel (hydroxypropylcellulose) (HPC).
Where [9] appears, read: dose: 200.0 mg/kg/injection, schedule: Q01DX005 (ip), vehicle: Klucel (hydroxypropylcellulose) (HPC).
[10] abbreviates: dose: 50.0 mg/kg/injection, schedule: Q01DX009 (ip), vehicle: Klucel (hydroxypropylcellulose) (HPC).
[11] abbreviates: dose: 100.0 mg/kg/injection, schedule: Q01DX009 (ip), vehicle: Klucel (hydroxypropylcellulose) (HPC).
Where [12] appears, read: dose: 200.0 mg/kg/injection, schedule: Q01DX009 (ip), vehicle: Klucel (hydroxypropylcellulose) (HPC).

For `c1ccc(-c2nn(-c3ccccc3)[n+](-c3ccccc3)n2)cc1`, the T/C (dose: 1.25 mg/kg/injection, schedule: Q01DX009 (ip), vehicle: saline with Tween-80) was 100 % of control and the T/C (dose: 2.5 mg/kg/injection, schedule: Q01DX009 (ip), vehicle: saline with Tween-80) is 90 % of control.
With `O=S1(=O)C=C(c2ccc3ccccc3c2)C1`, the T/C was 105 % of control (dose: 100.0 mg/kg/injection, schedule: Q01DX001 (ip), vehicle: saline with Tween-80); 100 % of control (dose: 200.0 mg/kg/injection, schedule: Q01DX001 (ip), vehicle: saline with Tween-80); 96 % of control (dose: 400.0 mg/kg/injection, schedule: Q01DX001 (ip), vehicle: saline with Tween-80).
For the compound `C1CSCCSCCSCCS1`, the T/C is 100 % of control (dose: 100.0 mg/kg/injection, schedule: Q04DX003 (ip), vehicle: Klucel (hydroxypropylcellulose) (HPC)); 100 % of control (dose: 200.0 mg/kg/injection, schedule: Q04DX003 (ip), vehicle: Klucel (hydroxypropylcellulose) (HPC)); 101 % of control (dose: 400.0 mg/kg/injection, schedule: Q04DX003 (ip), vehicle: Klucel (hydroxypropylcellulose) (HPC)).
Regarding `[Cl][Sn]([Cl])([c]1ccccc1)[c]1ccccc1.c1ccc(-c2nnc(-c3ccccn3)nc2-c2ccccc2)cc1`, the T/C by setting is: (dose: 0.79 mg/kg/injection, schedule: Q01DX005 (ip), vehicle: Klucel (hydroxypropylcellulose) (HPC)) 101 % of control and 120 % of control; (dose: 1.56 mg/kg/injection, schedule: Q01DX005 (ip), vehicle: Klucel (hydroxypropylcellulose) (HPC)) 120 % of control; (dose: 3.12 mg/kg/injection, schedule: Q01DX005 (ip), vehicle: Klucel (hydroxypropylcellulose) (HPC)) 123 % of control.
As for `CCOC(=O)CCc1c(-c2ccccc2)[nH]c2ccccc12`, the T/C under setting [1] was 106 % of control, the T/C under setting [2] was 107 % of control and the T/C under setting [3] was 101 % of control.
As to `CC(C)(C)NC(=O)NCCCCCCNC(=O)NC(C)(C)C`, the T/C reads like this: under setting [1], 96 % of control; under setting [2], 96 % of control; under setting [3], 101 % of control.
Take `O=C(O)CC(O)CCO` (centres undefined): the T/C was 104 % of control under setting [4], 103 % of control under setting [5] and 101 % of control under setting [6].
As to `CN1CCC(Br)(C(=O)c2ccccc2)CC1`, the T/C (dose: 37.5 mg/kg/injection, schedule: Q01DX009 (ip), vehicle: saline with Tween-80) was 100 % of control; the T/C (dose: 75.0 mg/kg/injection, schedule: Q01DX009 (ip), vehicle: saline with Tween-80) is 100 % of control; the T/C (dose: 150.0 mg/kg/injection, schedule: Q01DX009 (ip), vehicle: saline with Tween-80) is 104 % of control.
`O=C(Nc1ccc(S(=O)(=O)F)cc1)/C(=C/c1ccc([N+](=O)[O-])cc1)c1ccccc1`: the T/C is 102 % of control under setting [1] and 97 % of control under setting [2].
With `CNc1nc2c(C)ccc3[nH]c(N(C)C)nc3c-2n1`, the T/C (dose: 25.0 mg/kg/injection, schedule: Q01DX005 (ip), vehicle: Klucel (hydroxypropylcellulose) (HPC)) was 100 % of control; the T/C under setting [7] was 99 % of control; the T/C under setting [8] is 91 % of control.
Take `CCC(=O)OC(C)COc1ccc(C(C)(C)C)cc1` (centres undefined): the T/C runs as follows: (dose: 100.0 mg/kg/injection, schedule: Q01DX009 (ip), vehicle: saline with Tween-80) 107 % of control; (dose: 200.0 mg/kg/injection, schedule: Q01DX009 (ip), vehicle: saline with Tween-80) 114 % of control; (dose: 400.0 mg/kg/injection, schedule: Q01DX009 (ip), vehicle: saline with Tween-80) 117 % of control.
Consider `C[N+](C)(C)CCC[n+]1ccc(CCn2ccc3ccccc32)cc1`, for which the T/C reads like this: (dose: 25.0 mg/kg/injection, schedule: Q01DX001 (ip), vehicle: saline) 93 % of control; (dose: 50.0 mg/kg/injection, schedule: Q01DX001 (ip), vehicle: saline) 92 % of control; under setting [4], 102 % of control.
With `CCc1cccc2c(NCCCCCCCCCCNc3c4ccccc4nc4c(CC)cccc34)c3ccccc3nc12`, the T/C runs as follows: (dose: 0.62 mg/kg/injection, schedule: Q## X009 (ip), vehicle: lactic acid) 104 % of control; (dose: 1.25 mg/kg/injection, schedule: Q## X009 (ip), vehicle: lactic acid) 107 % of control; (dose: 2.5 mg/kg/injection, schedule: Q## X009 (ip), vehicle: lactic acid) 113 % of control.
Take `CC(=O)Nc1ccc2oc3ccc(Cl)cc3c(=O)c2c1`: the T/C reads like this: under setting [7], 98 % of control; under setting [8], 92 % of control; under setting [9], 91 % of control.
With `COCCOC(C)C(=O)C(O)S(=O)(=O)O` (centres undefined), the T/C runs as follows: (dose: 100.0 mg/kg/injection, schedule: Q01DX009 (ip), vehicle: saline) 109 % of control; (dose: 100.0 mg/kg/injection, schedule: Q04DX003 (ip), vehicle: saline) 100 % of control; (dose: 200.0 mg/kg/injection, schedule: Q04DX003 (ip), vehicle: saline) 100 % of control; (dose: 400.0 mg/kg/injection, schedule: Q01DX009 (ip), vehicle: saline) 154 % of control; (dose: 400.0 mg/kg/injection, schedule: Q04DX003 (ip), vehicle: saline) 107 % of control.
With `CCCCCCSc1nc2ccc(N=Cc3ccccc3O)cc2s1`, the T/C was 94 % of control under setting [10], 87 % of control under setting [11] and 90 % of control under setting [12].
As to `C[C@@]1(O)CC[C@@]23OC(=O)CC2C[C@@H]1O3` (some centres undefined), the T/C under setting [4] is 102 % of control, the T/C under setting [5] is 98 % of control and the T/C under setting [6] was 104 % of control.
With `O=C1C=C/C(=C\c2ccc(Cl)cc2)O1`, the T/C reads like this: (dose: 100.0 mg/kg/injection, schedule: Q04DX002 (ip), vehicle: Klucel (hydroxypropylcellulose) (HPC)) 99 % of control; (dose: 200.0 mg/kg/injection, schedule: Q04DX002 (ip), vehicle: Klucel (hydroxypropylcellulose) (HPC)) 107 % of control; (dose: 400.0 mg/kg/injection, schedule: Q04DX002 (ip), vehicle: Klucel (hydroxypropylcellulose) (HPC)) 96 % of control.
Turning to `Cn1cccc1/C=N/N1CC(=O)N(c2ccc(Cl)cc2)CC1=O`, the T/C is, setting by setting: (dose: 50.0 mg/kg/injection, schedule: Q01DX005 (ip), vehicle: saline with Tween-80) 110 % of control; (dose: 100.0 mg/kg/injection, schedule: Q01DX005 (ip), vehicle: saline with Tween-80) 106 % of control; (dose: 200.0 mg/kg/injection, schedule: Q01DX005 (ip), vehicle: saline with Tween-80) 88 % of control.
`CSc1nc(NC2OCC(OC(C)=O)C(OC(C)=O)C2OC(C)=O)c(N=CC=Nc2c(NC3OCC(OC(C)=O)C(OC(C)=O)C3OC(C)=O)nc(SC)n(C)c2=O)c(=O)n1C` (centres undefined): the T/C was 95 % of control under setting [1], 91 % of control under setting [2] and 92 % of control under setting [3].
For `CCOc1ccc(N2C(=O)C(=O)C(C(C)=O)C2=O)cc1` (centres undefined), the T/C reads like this: under setting [10], 108 % of control; under setting [11], 106 % of control; under setting [12], 100 % of control.
As for `Cc1cc(C=C2C(=O)OC(C)(C)OC2=O)cc(C)c1O`, the T/C under setting [7] was 93 % of control, the T/C under setting [8] is 90 % of control and the T/C under setting [9] is 103 % of control.
For `CCC1CN2CCc3cc(OC)c(OC)cc3C2C(C2(O)C(=O)Nc3ccccc32)C1=O` (centres undefined), the T/C runs as follows: under setting [10], 99 % of control; under setting [11], 100 % of control; under setting [12], 100 % of control.
